The source of these data is PMC6592956, “Characterization of Porcine Hepatic and Intestinal Drug Metabolizing CYP450: Comparison with Human Orthologues from A Quantitative, Activity and Selectivity Perspective” (Scientific Reports, 2019).

Marks after values point to notes of the source that are not given here.

For data set [1], the system named is porcine intestinal CYP450 enzymes. As to the kind of experiment: in vitro. Particulars: pig.
Protocol: (§2) Intestinal microsomes were incubated as described above for hepatic microsomes. […] Each activity measurement (hepatic and intestinal) was performed in triplicate and data are present [...
Another data set relates to porcine CYP450. Particulars: outcome of general decision tree, Figure 4.
Data set [2] deals with hepatic CYP450 abundancies. Briefly: Pearson correlation between hepatic CYP450 abundancies and probe activities.
Data set [3] concerns porcine intestinal CYP450 enzymes. Particulars: duodenum, jejunum, ileum.
Protocol: as §2
Data set [4] has as its system CYP1A. To be noted: n = 8.
Protocol: (§3) The incubation times were derived from linearity experiments. […] Protein concentrations and time were chosen at the lowest possible value to allow reliable quantification, within the linear range of the biotransformation reaction.
(§4) The activity data were fitted against the standard Michaelis-Menten equation (Eq. (1a), first term). For each profile, Eadie-Hofstee plots were derived to investigate involvement of more than one enzyme or deviation from normal Michaelis-Menten behaviour. If the Eadie-Hofstee plot was hyperbolic, the data was fitted against the Hill equation[60]. Km, Vmax and/or Hill coefficients were derived for each substrate and pig, in order to obtain the inter-individual variation.
(§5) Stepwise linear regression, correlation analyses, and independent sample t-tests were performed with the SPSS® 24 software (IBM, New York, USA). Sex differences in hepatic protein abundances, Km, and Vmax values, were analyzed by an independent sample t-test. Normality was checked using the Shapiro Wilk test. If the Shapiro Wilk test statistic was significant, log transformation was used to calculate the t-statistic. Equality of variances was checked using the Levene’s test for equality of variances. The appropriate test statistic was used depending on the equality of variances.
Data set [5] deals with CYP1A. Particulars: n = 8. This is another data set of the same source.
Protocol: as §3, §4, §5
A further data set addresses CYP2C9/19. Particulars: cited from earlier work. The protocol:
(§1) The inhibitors used were α-NFV, 8-MPS, KET, SFZ, QND, and DDC for CYP1A/2 A, CYP2A, CYP3A, CYP2C, CYP2D, and CYP2E1, respectively. […] All incubations were performed in triplicate.

The subject of a further data set is CYP3A. Briefly: Incubation with inhibitors: MDZ-hydroxylation in porcine hepatic microsomes. The data set is classed as in vitro ADME, conventional pig. Particulars: MDZ 20 µM; inhibitors SFZ 0.5, α-NFV 0.1 (1 µM), QND 0.1, KET 0.3, DDC 20, 8-MPS 1 µM; mean (SD) of 3. The protocol:
as §1

Data set [6] relates to CYP1A. Briefly: Incubation with inhibitors: PH-O-deethylation in porcine hepatic microsomes. The data set is classed as in vitro ADME, conventional pig. How it is done: as §1
For a further data set, the system named is CYP2A. As to the kind of experiment: Incubation with inhibitors: CM-hydroxylation in porcine hepatic microsomes. The data set is classed as in vitro ADME, conventional pig. How it is done:
as §1

Another data set concerns CYP2E. Briefly: Incubation with inhibitors: CZ-hydroxylation in porcine hepatic microsomes. In kind it is in vitro ADME, conventional pig. The protocol:
as §1

In a further data set the target is T1, CYP2D (Sus scrofa, UniProt O46658).
T1 construct: from tissue; host or cells: pig liver microsomes
T1 sequence (O46658 1-500): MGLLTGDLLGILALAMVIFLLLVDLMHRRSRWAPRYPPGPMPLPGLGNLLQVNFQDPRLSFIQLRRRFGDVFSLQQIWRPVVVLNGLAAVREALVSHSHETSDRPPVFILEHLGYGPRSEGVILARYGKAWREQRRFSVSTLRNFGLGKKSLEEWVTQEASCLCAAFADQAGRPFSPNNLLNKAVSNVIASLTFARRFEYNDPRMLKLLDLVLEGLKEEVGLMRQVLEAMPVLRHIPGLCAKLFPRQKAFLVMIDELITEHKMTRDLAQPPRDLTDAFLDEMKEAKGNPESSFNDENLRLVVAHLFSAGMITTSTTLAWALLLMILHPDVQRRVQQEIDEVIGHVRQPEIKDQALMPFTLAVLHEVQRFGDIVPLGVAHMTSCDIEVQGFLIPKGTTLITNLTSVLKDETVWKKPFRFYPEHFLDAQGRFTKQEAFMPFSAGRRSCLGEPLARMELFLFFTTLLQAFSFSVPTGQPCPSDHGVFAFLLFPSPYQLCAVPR
As to the kind of experiment: Incubation with inhibitors: DXM-O-demethylation in porcine hepatic microsomes. The data set is classed as in vitro ADME, conventional pig. Particulars: DXM 10 µM; inhibitors SFZ 0.5, α-NFV 0.1 (1 µM), QND 0.1, KET 0.3, DDC 20, 8-MPS 1 µM; mean (SD) of 3. How it is done: as §1

In a further data set the test system is CYP2C. To be noted: TB 200 µM; inhibitors SFZ 0.5, α-NFV 0.1 (1 µM), QND 0.1, KET 0.3, DDC 20, 8-MPS 1 µM; mean (SD) of 3.

Turning to `COc1ccc2c(c1)[C@]13CCCC[C@@H]1[C@H](C2)N(C)CC3` [DXM, Dextromethorphan], the Michaelis-Menten constant (Km) at 10 min in [1] (Duodenum Km, duodenal microsomes, pool of 16 pigs, n=3, mean (SD)) is 31.5 µM. In addition, in the data set on porcine CYP450, the “Enzyme involvement: High affinity” value is on record as “CYP2D25” and the “Enzyme involvement: Low affinity” value is “CYP3A”. Also, in data set [2] (level 1 (DXM 0.10 µM)), the “Pearson's correlation coefficient, DXM activity vs hepatic CYP2C33 abundance” value was 0.59; the “Pearson's correlation coefficient, DXM activity vs hepatic CYP2E1 abundance” value amounted to 0.55; the “Pearson's correlation coefficient, DXM activity vs hepatic CYP3A46 abundance” value worked out at 0.59. Further, in data set [2] (level 2 (DXM 0.50 µM)), the “Pearson's correlation coefficient, DXM activity vs hepatic CYP2C33 abundance” value is on record as 0.65*; the “Pearson's correlation coefficient, DXM activity vs hepatic CYP2D25 abundance” value is 0.55; the “Pearson's correlation coefficient, DXM activity vs hepatic CYP2E1 abundance” value is listed as 0.57; the “Pearson's correlation coefficient, DXM activity vs hepatic CYP3A29 abundance” value turned out to be 0.52. Further, the “Pearson's correlation coefficient, DXM activity vs hepatic CYP3A46 abundance” value in data set [2] (level 2 (DXM 0.50 µM)) is given as 0.65*. Further, in data set [2] (level 3 (DXM 1.00 µM)), the “Pearson's correlation coefficient, DXM activity vs hepatic CYP1A2 abundance” value worked out at 0.54; the “Pearson's correlation coefficient, DXM activity vs hepatic CYP2C33 abundance” value is listed as 0.65*; the “Pearson's correlation coefficient, DXM activity vs hepatic CYP2D25 abundance” value was 0.57; the “Pearson's correlation coefficient, DXM activity vs hepatic CYP2E1 abundance” value came to 0.60. In addition, in data set [2] (level 3 (DXM 1.00 µM)), the “Pearson's correlation coefficient, DXM activity vs hepatic CYP3A29 abundance” value amounted to 0.56 and the “Pearson's correlation coefficient, DXM activity vs hepatic CYP3A46 abundance” value is 0.73*. Further, in data set [2] (level 4 (DXM 5.00 µM)), the “Pearson's correlation coefficient, DXM activity vs hepatic CYP1A2 abundance” value came to 0.56; the “Pearson's correlation coefficient, DXM activity vs hepatic CYP2C33 abundance” value is given as 0.70*; the “Pearson's correlation coefficient, DXM activity vs hepatic CYP2D25 abundance” value is reported as 0.63*; the “Pearson's correlation coefficient, DXM activity vs hepatic CYP2E1 abundance” value came to 0.56. In data set [2] (level 4 (DXM 5.00 µM)), the “Pearson's correlation coefficient, DXM activity vs hepatic CYP3A29 abundance” value was found to be 0.58 and the “Pearson's correlation coefficient, DXM activity vs hepatic CYP3A46 abundance” value is on record as 0.78*. In data set [2] (level 5 (DXM 20.0 µM)), the “Pearson's correlation coefficient, DXM activity vs hepatic CYP1A2 abundance” value is recorded as 0.55; the “Pearson's correlation coefficient, DXM activity vs hepatic CYP2C33 abundance” value is 0.70*; the “Pearson's correlation coefficient, DXM activity vs hepatic CYP2D25 abundance” value is listed as 0.63*; the “Pearson's correlation coefficient, DXM activity vs hepatic CYP2E1 abundance” value came to 0.52. Besides, in data set [2] (level 5 (DXM 20.0 µM)), the “Pearson's correlation coefficient, DXM activity vs hepatic CYP3A29 abundance” value is reported as 0.58 and the “Pearson's correlation coefficient, DXM activity vs hepatic CYP3A46 abundance” value is given as 0.75*. In [2] (level 6 (DXM 100 µM)), the “Pearson's correlation coefficient, DXM activity vs hepatic CYP1A2 abundance” value turned out to be 0.54; the “Pearson's correlation coefficient, DXM activity vs hepatic CYP2C33 abundance” value is reported as 0.67*; the “Pearson's correlation coefficient, DXM activity vs hepatic CYP2D25 abundance” value is listed as 0.66*; the “Pearson's correlation coefficient, DXM activity vs hepatic CYP2E1 abundance” value amounted to 0.54. For the same molecule, in [2] (level 6 (DXM 100 µM)), the “Pearson's correlation coefficient, DXM activity vs hepatic CYP3A29 abundance” value is 0.59 and the “Pearson's correlation coefficient, DXM activity vs hepatic CYP3A46 abundance” value is reported as 0.74*. In addition, in [2] (range over concentration levels), the “Correlation (r) of CYP2D25 with DXM-O-demethylation” value is recorded as 0.55–0.66.

Regarding `CCOc1ccc(NC(C)=O)cc1` [PH, Phenacetin], the Km at 10 min in data set [1] (duodenal microsomes) was 144 µM; in data set [1] (ileal microsomes) it was 189 µM; in [1] (jejunal microsomes), 182 µM. Also, the “Pearson's correlation coefficient, PH activity vs hepatic CYP3A46 abundance” value in data set [2] (level 6 (PH 200 µM)) is on record as 0.51.

In the case of `O=c1ccc2ccccc2o1` [CM, coumarin], the “CM-hydroxylase activity in the intestine” value in [3] is “No CM-hydroxylase activity could be detected”. Also, the “Enzyme involvement: High affinity” value with porcine CYP450 was “CYP2A19”. The “Pearson's correlation coefficient, CM activity vs hepatic CYP2A19 abundance” value is given as 0.62 in [2] (level 3 (CM 2.00 µM)), 0.66* in [2] (level 4 (CM 5.00 µM)), 0.67* in [2] (level 5 (CM 20.0 µM)) and 0.66* in data set [2] (level 6 (CM 100 µM)).

Turning to `CCOc1ccc(NC(C)=O)cc1` [PH, phenacetin], the “log_Km, male” value with CYP1A [4] was 1,2876. In addition, the “log_Km, female” value with CYP1A [5] was 1,1345.

Consider `Nc1ccc(S(=O)(=O)Nc2ccnn2-c2ccccc2)cc1` [SFZ, sulphaphenazole], for which, on CYP2C9/19, the inhibition constant Ki was 120 to 700 nM.

On to `O=c1cc(-c2ccccc2)oc2c1ccc1ccccc12` [α-naphthoflavone], for which the “Ratio of residual activity (substrate + inhibitor versus substrate only), CYP3A MDZ” value in the data set with CYP3A is reported as 1.08 (0.048). Moreover, in the data set with CYP1A [6] (PH 20 µM, inhibitors SFZ 0.5, α-NFV 0.1 (1 µM), QND 0.1, KET 0.3, DDC 20, 8-MPS 1 µM, mean (SD) of 3), the “Ratio of residual activity (substrate + inhibitor versus substrate only), CYP1A PH” value is 0.76 (0.011). In addition, the “PH-O-deethylation (CYP1A2) activity, % of the control value” in the data set with CYP1A [6] (inhibitor increased to 1 µM) turned out to be 76%. In addition, the inhibition at 0.1 µM in the data set with CYP1A [6] (pig, probe phenacetin 20 µM (PH-O-deethylation), porcine hepatic microsomes, read-out: Inhibition of PH-O-deethylation by inhibitor) is 24%. Also, the “Ratio of residual activity (substrate + inhibitor versus substrate only), CYP2A CM” value with CYP2A (CM 1 µM, inhibitors SFZ 0.5, α-NFV 0.1 (1 µM), QND 0.1, KET 0.3, DDC 20, 8-MPS 1 µM, mean (SD) of 3) was 0.94 (0.131). Moreover, in the data set with CYP2A (pig, porcine hepatic microsomes, probe coumarin 1 µM (CM-hydroxylation), inhibitor 1 µM, read-out: Maximal inhibition of other reactions (CM)), the inhibition at 1 µM came to 4%. Further, in the data set with CYP2A (porcine hepatic microsomes), the “Inhibition of CM-hydroxylation by inhibitor” value is listed as 5%. Moreover, the “Ratio of residual activity (substrate + inhibitor versus substrate only), CYP2E CZ” value in the data set with CYP2E (CZ 50 µM, inhibitors SFZ 0.5, α-NFV 0.1 (1 µM), QND 0.1, KET 0.3, DDC 20, 8-MPS 1 µM, mean (SD) of 3) is listed as 1.06 (0.057). Further, in the data set with CYP2E (porcine hepatic microsomes), the “Inhibition of CZ-hydroxylation by inhibitor” value is on record as “did not inhibit”. For the same molecule, at CYP2D, the “Ratio of residual activity (substrate + inhibitor versus substrate only), CYP2D DXM” value was 1.02 (0.143). Besides, the “Ratio of residual activity (substrate + inhibitor versus substrate only), CYP2C TB” value in the data set on CYP2C is 1.13 (0.099).

B1: CYP3A29 (protein, UniProt P79401 1-503, looked up)
Cytochrome P450 3A29: MDLIPGFSTETWVLLATSLVLLYLYGTYSHGLFKKLGIPGPRPLPYFGNILGYRKGVDHFDKKCFQQYGKMWGVYDGRQPLLAVTDPNMIKSVLVKECYSVFTNRRSFGPLGAMRNALSLAEDEEWKRIRTLLSPTFTSGKLKEMFPIISHYGDLLVSNLRKEAEKGKPVTMKDIFGAYSMDVITSTAFGVNIDSLNNPQDPFVENSKKLLKFSFFDPFLLSLIFFPFLTPIFEVLNITLFPKSSVNFFTKSVKRMKESRLTDQQKRRVDLLQLMINSQNSKEMDPHKSLSNEELVAQGIIFIFAGYETTSSALSLLAYELATHPDVQQKLQEEIEATFPNKAPPTYDALAQMEYLDMVVNETLRLYPIAARLERACKKDVEIHGVFVPKGTVVVVPVFVLHRDPDLWPEPEEFRPERFSKKHKDTINPYTYLPFGTGPRNCIGMRFALMNMKLALVRVLQNFSFKPCKETQIPLKLTTQGLTQPEKPVVLKILPRDGTVSGA
B1: the Amount in the data set with hepatic CYP450 is 4.74 pmol/mg protein.

B2: CYP2D25 (protein, UniProt O46658 2-500, looked up)
Vitamin D(3) 25-hydroxylase: GLLTGDLLGILALAMVIFLLLVDLMHRRSRWAPRYPPGPMPLPGLGNLLQVNFQDPRLSFIQLRRRFGDVFSLQQIWRPVVVLNGLAAVREALVSHSHETSDRPPVFILEHLGYGPRSEGVILARYGKAWREQRRFSVSTLRNFGLGKKSLEEWVTQEASCLCAAFADQAGRPFSPNNLLNKAVSNVIASLTFARRFEYNDPRMLKLLDLVLEGLKEEVGLMRQVLEAMPVLRHIPGLCAKLFPRQKAFLVMIDELITEHKMTRDLAQPPRDLTDAFLDEMKEAKGNPESSFNDENLRLVVAHLFSAGMITTSTTLAWALLLMILHPDVQRRVQQEIDEVIGHVRQPEIKDQALMPFTLAVLHEVQRFGDIVPLGVAHMTSCDIEVQGFLIPKGTTLITNLTSVLKDETVWKKPFRFYPEHFLDAQGRFTKQEAFMPFSAGRRSCLGEPLARMELFLFFTTLLQAFSFSVPTGQPCPSDHGVFAFLLFPSPYQLCAVPR
For the molecule B2, in the data set on hepatic CYP450, the “log abundance, Mean Difference (t-test for Equality of Means)” value is on record as “,05407” and the “log abundance, Sig. (2-tailed)” value is given as “,497”.
